Assay results as given in patent publication US20240317748A1, “CARBONYL SUBSTITUTED DIAZASPIRO COMPOUNDS AND ITS USE” (BIONOVA PHARMACEUTICALS (SHANGHAI) LIMITED, priority 2021, published 2024).

Legend:
Menin-MLL1 = target: T1, Menin-MLL1 (Homo sapiens, UniProt O00255); assay: Menin-MLL1 inhibition assay (fluorescence polarization, Menin protein + FAM-MLL peptide); type: binding; conditions: Menin (2-610) isoform 2, FAM-labelled MLL peptide, mP readout; read-out: Biochemical assay Menin-MLL1 IC50
T1 construct: Menin (2-610) isform2; purchased ChemPartner 2020111101
T1 sequence (O00255 2-610): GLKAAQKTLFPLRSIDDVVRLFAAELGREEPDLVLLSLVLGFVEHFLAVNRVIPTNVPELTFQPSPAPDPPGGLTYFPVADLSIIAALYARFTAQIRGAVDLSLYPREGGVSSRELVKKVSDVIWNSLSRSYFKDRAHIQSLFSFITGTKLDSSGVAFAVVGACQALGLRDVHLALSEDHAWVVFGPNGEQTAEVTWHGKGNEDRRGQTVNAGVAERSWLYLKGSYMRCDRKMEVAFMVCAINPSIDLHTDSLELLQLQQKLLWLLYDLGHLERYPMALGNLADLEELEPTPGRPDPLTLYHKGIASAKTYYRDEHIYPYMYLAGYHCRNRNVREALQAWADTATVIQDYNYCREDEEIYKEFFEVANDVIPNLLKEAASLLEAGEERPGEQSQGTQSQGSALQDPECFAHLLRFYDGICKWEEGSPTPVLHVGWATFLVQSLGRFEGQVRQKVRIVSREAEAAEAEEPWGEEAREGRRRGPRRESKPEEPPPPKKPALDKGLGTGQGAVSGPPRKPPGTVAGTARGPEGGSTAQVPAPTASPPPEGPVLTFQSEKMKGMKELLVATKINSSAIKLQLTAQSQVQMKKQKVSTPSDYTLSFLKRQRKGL
Method: 1× assay bu9ffer (Tris 7.5 50 mM, NaCl 50 mM, DTT 1 mM, Tween-20 0.01%) was prepared and test compounds solution (10 mM in DMSO, Sigma, Cat. No. 34869) were transferred to assay plate (384-well plate, Perkin Elmer, Cat. No. 6007279) by Echo. The final fraction of DMSO is 1%. 20 nM of Menin protein (Menin (2-610) isform2, ChemPartner, Cat. No. 2020111101) in 1× assay buffer was added to prepare 2× enzyme solution. Then 10 nM of MLL-peptide (Ac-SRWRFPARPGTGRR-Ahx-Ahx-K(FAM)-NH2, GL Biochem (Shanghai)), Cat. No. 833831/202009220104) in 1× assay buffer was added to prepare 2× substrate solution. 10 μL of 2× enzyme solution was transferred to assay plate or 10 μL of 1× assay buffer for low control group. 10 μL of 2× substrate solution was added to each well to start reaction. mP data on Envision (Ex480/Em535(s), Em535(p)) was collected.
Compound potencies were determined by first calculating % inhibition at each compound concentration according to equation 1:
Inhibition %=(Max−Signal)/(Max−Min)*100 (Equation 1)
Y=Bottom+(Top-Bottom)/(1+(IC50/X)[…]), where Y is % inhibition and X is compound concentration (Equation 2)

MV-4-11 cells = assay: Cell proliferation assay (CellTiter-Glo), MV-4-11; type: cell-based, human; conditions: Homo sapiens, MV4-11, 96 h; MV-4-11 (MLL-AF4), 4 days incubation; read-out: Cell antiproliferation assay MV-4-11 IC50
Method: The antiproliferative activity of test compounds was assessed in human leukemia cell lines. The cell line MV4-11, MOLM13 and OCI-AML3, which expresses the MLL fusion protein MLL-AF4, MLL-AF9 and carry the NPM1c gene mutation, respectively, were tested. HL-60 was used as a control cell line containing two MLL wildtype alleles in order to exclude compounds that display general cytotoxic effect. MV4-11 cells were cultured in IMDM supplemented with 10% FBS, MOLM13 and OCI-AML3 cells were cultured in RPMI1640 supplemented with 20% FBS, and HL-60 cells were cultured in IMDM supplemented with 20% FBS. Corresponding cells (MV4-11, MOLM13, OCI-AML3 or HL-60 cell line) were seeded in 100 uL medium per well in 96-well plate (white wall with clear bottom, tissue culture treated, Corning, Cat. No. CLS3903; Lot.No. 30419025). Plates were placed in the CO2 incubator overnight. Compounds solution (2 mM starting, 4-fold serial dilution) were prepared and added to the wells containing 100 μL of the culture medium with HPD300 according to the plate map and centrifuge at 1000 rpm for 1 minutes (200-fold dilution totally). MV4-11, MOLM13, OCI-AML3 and HL-60 cells were incubated with the compounds for 4, 12, 5 and 4 days, respectively, under 5% CO2 at 37° C., respectively. 100 μL of CellTiter-Glo reagent (Promega, Cat. No. G7573, Lot. No. 0000416710) was added to the assay plate by Multidrop Combi instrument, contents were mixed for 10 minutes on an orbital shaker to induce cell lysis. After incubation at room temperature for 10 mins, clear bottom with white back seal was pasted and luminescence with Envision was read.

SMILES | IC50 (Menin-MLL1) [nM] | IC50 (MV-4-11 cells) [nM]
CC(C)n1ncnc1-c1cc(F)ccc1Oc1cncnc1N1CC2(CCN(C(=O)[C@@H]3C[C@@H](F)CN3)CC2)C1 [Example 43] | 4.8 | 170
CCN(C(=O)c1cc(F)ccc1Oc1cncnc1N1CC2(CCN(C(=O)[C@@H]3C[C@H](NS(C)(=O)=O)CN3)CC2)C1)C(C)C [Example 16] | 22.3 | –
CCN(C(=O)c1cc(F)ccc1Oc1cncnc1N1CC2(CCN(C(=O)[C@@H]3C[C@@]4(CN3)CC4(F)F)CC2)C1)C(C)C [Example 24] | 8 | 102
CCN(C(=O)c1cc(F)ccc1Oc1nncnc1N1CC2(CCN(C(=O)[C@H]3NCC[C@@H]3C(F)F)CC2)C1)C(C)C [Example 99a, 2-((5-(7-((2S,3S)-3-(difluoromethyl)pyrrolidine-2-carbonyl)-2,7-diazaspiro[3.5]nonan-2-yl)-1,2,4-triazin-6-yl)oxy)-N-ethyl-5-fluoro-N-isopropylbenzamide] | 5.4 | 46.4
CCN(C(=O)c1cc(F)ccc1Oc1cncnc1N1CC2(CCN(C(=O)[C@@H]3C[C@H]4C[C@H]4N3)CC2)C1)C(C)C [Example 32] | 6.5 | 75.4
CCN(C(=O)c1cc(F)ccc1Oc1cncnc1N1CC2(CCN(C(=O)[C@@H]3CSCN3)CC2)C1)C(C)C [Example 52] | 21 | –
[2H]C([2H])(C)N(C(=O)c1cc(F)ccc1Oc1nncnc1N1CC2(CCN(C(=O)[C@H]3NC[C@@H]4CCC[C@@H]43)CC2)C1)C(C)C [Example 102] | 5.4 | 4.6
CCN(C(=O)c1cc(F)ccc1Oc1cncnc1N1CC2(CCN(C(=O)[C@@H]3COCCN3)CC2)C1)C(C)C [Example 26] | 10.2 | 647
CCN(C(=O)c1cc(F)ccc1Oc1nncnc1N1CC2(CCN(C(=O)[C@H]3NC[C@H]4CC(F)(F)C[C@H]43)CC2)C1)C(C)C (single isomer, unassigned) [Example 98a] | 5.4 | 333
CCN(C(=O)c1cc(F)ccc1Oc1cncnc1N1CC2(CCN(C(=O)[C@@H]3C[C@@H](c4ccccc4)CN3)CC2)C1)C(C)C [Example 48] | 11.4 | 144
CCN(C(=O)c1cc(F)ccc1Oc1cncnc1N1CC2(CCN(C(=O)[C@@H]3C[C@@]4(C)C[C@H]4N3)CC2)C1)C(C)C [Example 9] | 12.9 | 40.7
COc1ccc(-c2cc(F)ccc2Oc2nncnc2N2CC3(CCN(C(=O)[C@H]4NC[C@@H]5CCC[C@@H]54)CC3)C2)c(C2CC2)n1 [Example 107] | 2.4 | 2.4
O=C([C@H]1NC[C@@H]2CCC[C@@H]21)N1CCC2(CC1)CN(c1ncnnc1Oc1ccc(F)cc1-c1cccnc1C1CC1)C2 [Example 103] | 4.4 | 1.5
CC(C)N(CC(F)F)C(=O)c1cc(F)ccc1Oc1cncnc1N1CC2(CCN(C(=O)[C@@H]3C[C@@H](F)CN3)CC2)C1 [Example 45] | 3.4 | 36.1
CCN(C(=O)c1cc(F)ccc1Oc1nncnc1N1CC2(CCN(C(=O)[C@@H]3NC[C@@H]4CC(F)(F)C[C@@H]43)CC2)C1)C(C)C (single isomer, unassigned) [Example 98b] | 22 | 2640
CCN(C(=O)c1cc(F)ccc1Oc1nncnc1N1CC2(CCN(C(=O)[C@@H]3NC[C@@H](C)[C@H]3C)CC2)C1)C(C)C [Example 93] | 24.8 | 457
CCN(C(=O)c1cc(F)ccc1Oc1cncnc1N1CC2(CCN(C(=O)[C@@]3(C)CCCN3)CC2)C1)C(C)C [Example 29] | 7 | 271
CCN(C(=O)c1cc(F)ccc1Oc1nncnc1N1CC2(CCN(C(=O)C3NC[C@H]4CC(F)(F)C[C@@H]34)CC2)C1)C(C)C (single isomer, unassigned) [Example 98c] | 44.5 | –

The next lines start with the values.

IC50 (Menin-MLL1) [nM] | IC50 (MV-4-11 cells) [nM] | SMILES
3.7 | 16.7 | CC(C)N(C(=O)c1cc(F)ccc1Oc1nncnc1N1CC2(CCN(C(=O)[C@H]3NCC[C@H]3C)CC2)C1)C(C)C [Example 76]
10.9 | 786 | C[C@H]1COCCN1C(=O)c1cc(F)ccc1Oc1cncnc1N1CC2(CCN(C(=O)[C@@H]3C[C@@H](F)CN3)CC2)C1 [Example 53]
11.7 | 284 | CCN(C(=O)c1cc(F)ccc1Oc1nncnc1N1CC2(CCN(C(=O)[C@@H]3NCC[C@H]3C3CC3)CC2)C1)C(C)C [Example 100b]
8.4 | 232 | CCN(C(=O)c1cc(F)ccc1Oc1cncnc1N1CC2(CCN(C(=O)[C@@H]3CC[C@@H](F)CN3)CC2)C1)C(C)C [Example 25]
13.5 | – | CCN(C(=O)c1cc(F)ccc1Oc1cncnc1N1CC2(CCN(C(=O)[C@@H]3C[C@@H](NS(C)(=O)=O)CN3)CC2)C1)C(C)C [Example 18]
2.7 | 6.9 | CCN(C(=O)c1cc(F)ccc1Oc1nncnc1N1CC2(CCN(C(=O)[C@H]3NCC[C@@H]3C3CC3)CC2)C1)C(C)C [Example 100a]
25.3 | 317 | CCN(C(=O)c1cc(C#N)ccc1Oc1cncnc1N1CC2(CCN(C(=O)[C@@H]3C[C@@H](F)CN3)CC2)C1)C(C)C [Example 17]
4.7 | 68.2 | CCN(C(=O)c1cc(F)ccc1Oc1cncnc1N1CC2(CCN(C(=O)[C@@H]3C[C@](F)(CF)CN3)CC2)C1)C(C)C [Example 12]
55.2 | – | CCN(C(=O)c1cc(F)ccc1Oc1cncnc1N1CC2(CCN(C(=O)[C@@H]3C[C@@H](S(C)(=O)=O)CN3)CC2)C1)C(C)C [Example 15]
6.7 | 41 | [2H]c1c(F)cc(C(=O)N(CC)C(C)C)c(Oc2cncnc2N2CC3(CCN(C(=O)[C@@H]4C[C@@H](F)CN4)CC3)C2)c1[2H] [Example 31]
4 | 5.6 | CO[C@H]1CCN[C@@H]1C(=O)N1CCC2(CC1)CN(c1ncnnc1Oc1ccc(F)cc1-c1ccc(C#N)cc1C1CC1)C2 [Example 96]
4.3 | 221 | C[C@@H]1COCCN1C(=O)c1cc(F)ccc1Oc1cncnc1N1CC2(CCN(C(=O)[C@@H]3C[C@@H](F)CN3)CC2)C1 [Example 51]
11 | 308 | CCN(C(=O)c1cc(F)ccc1Oc1nncnc1N1CC2(CCN(C(=O)[C@@H]3NCCC3(C)C)CC2)C1)C(C)C [Example 66]
2 | 9.4 | O=C([C@H]1NC[C@@H]2CCC[C@@H]21)N1CCC2(CC1)CN(c1ncnnc1Oc1ccc(F)cc1-c1ccc(=O)[nH]c1C1CC1)C2 [Example 106]
15.4 | – | CCN(C(=O)c1cc(F)ccc1Oc1cncnc1N1CC2(CCN(C(=O)[C@@H]3C[C@@H](F)CN3)C2)C1)C(C)C [Example 37]
9.2 | – | CCN(C(=O)c1cc(F)ccc1Oc1cncnc1N1CC2(CCN(C(=O)[C@@H]3CC(C)(O)CN3)CC2)C1)C(C)C (some centres unmarked) [Example 14]
16.7 | – | CCN(C(=O)c1cc(F)ccc1Oc1cncnc1N1CC2(CCN(C(=O)[C@@H]3C[C@]4(COC)CC4N3)CC2)C1)C(C)C (some centres unmarked) [Example 13]
